# Laboratory results published in PMC9697349, “Mouse Pharmacokinetics and In Vitro Metabolism of SH-11037 and SH-11008, Synthetic Homoisoflavonoids for Retinal Neovascularization” (Pharmaceutics, 2022).
# Columns and labels:
# Assay type in all cases: in vitro ADME
# [1] = Metabolic stability of SH-11008 in human liver S9 fractions
# Protocol: For studies using NADPH or PAPS as a cofactor, 4 μL of SH-11008 (40 μM) solution in 40 vol% CH3CN were mixed with 40 μL of 4 mg protein/mL HLS9 or MLS9 fractions diluted in 0.1 M potassium phosphate buffer (pH 7.4) and 100 μL of 0.1 M potassium phosphate buffer (pH 7.4). When using UDPGA as a cofactor, 32 μL of UGT Reaction Mix Solution B and 68 μL of de-ionized water were used instead of 100 μL of 0.1 M potassium phosphate buffer (pH 7.4). The mixture was warmed at 37 °C for 5 min. The reaction was then initiated by adding 16 μL of 10 mM cofactor dissolved in de-ionized water. The assay condition for UDPGA was used for metabolic stability studies conducted with a mixture of the three cofactors. The reaction was terminated at selected times by adding 160 μL of ice-cold CH3CN containing glipizide (500 ng/mL) as the IS. The resulting mixture was vortexed, sonicated, and centrifuged at 3000× g for 20 min. Aliquots of the supernatant were subjected to LC-MS/MS analysis described below in Section 2.6.2.
# The LC-MS/MS system consisted of Agilent 1290 Infinity HPLC system and Agilent 6530 Accurate-Mass Quadrupole Time-of-Flight (Q-TOF) mass spectrometer equipped with dual AJS ESI ion source (Agilent Technologies Korea, Seoul, Korea). Chromatographic separation was performed on an Agilent Eclipse Plus C18 column (2.1 × 100 mm, 3.5 μm) with a Phenomenex Security Guard C18 guard column (4 × 20 mm) maintained at 40 °C. The mobile phase consisted of 0.1% formic acid in deionized water (A) and 0.1% formic acid in CH3CN (B): 0~2 min 5% B, 2~7 min to 95% B, and 7~10 min 95% B. Total run time including a 5 min equilibration time was 15 min. The flow rate was 0.4 mL/min. The injection volume was 5 µL. The mass spectrometer was operated in a positive Auto MS/MS scan mode with a full scan mass range of m/z 100–1000, fragmentor voltage 150 V, and CE 30 eV, selecting the two most intense precursor ions for collision-induced dissociation. Putative metabolites were identified using Agilent Mass Hunter Metabolite ID software (ver.B.04.00) followed by manual interpretation of the spectral data. Chromatograms and mass spectra were extracted using Agilent Mass Hunter Qualitative Analysis software (ver. B.05.00).
# Pharmacokinetic parameters were calculated by noncompartmental analysis of plasma concentration versus time profiles using PKSolver. The scaling factors of mice and human, half-life (t1/2), intrinsic clearance (CLint), hepatic clearance (CLH), and hepatic extraction ratio (EH) were from the in vitro studies as described previously. […] The fraction of parent drug converted to the metabolite (fm) was calculated as follows:fm (%) = (AUC(m) × CL(m))/D × MWparent/MWmetabolite × 100,(1) where D is dose of the parent drug, AUC(m) is area under the curve for the metabolite after a dose of parent drug, CL(m) is CL of metabolite, and MW is molecular weight.
# [2] = Stability of SH-11037 in human plasma; conditions: pH 7.4, SH-11037 1 µM, 37 °C, read-out: half-life (t1/2) of hydrolysis to SH-11008
# Protocol: (§1) SH-11037 (1 μM) was incubated in triplicate in 0.1 M phosphate buffer (pH 7.4) or in mouse, dog, and human plasma to investigate its stability. SH-11037 (40 μM) in 50 vol% aqueous CH3CN was mixed with 0.1 M phosphate buffer (pH 7.4) or plasma diluted 3-fold with 0.1 M phosphate buffer (pH 7.4) to a final volume of 160 μL and a final concentration of 1 μM. The resulting solutions were then incubated at 37 °C in a shaking water bath. The incubations were terminated at selected times by adding 160 µL of ice-cold CH3CN containing glipizide (500 ng/mL) as the internal standard (IS). The resulting mixture was vortexed, sonicated, and centrifuged at 3000× g for 20 min. Aliquots of the supernatant were subjected to LC-MS/MS analysis described below in Section 2.6.2.
# (§2) The LC-MS/MS system consisted of Agilent 1290 Infinity HPLC system and Agilent 6530 Accurate-Mass Quadrupole Time-of-Flight (Q-TOF) mass spectrometer equipped with dual AJS ESI ion source (Agilent Technologies Korea, Seoul, Korea). Chromatographic separation was performed on an Agilent Eclipse Plus C18 column (2.1 × 100 mm, 3.5 μm) with a Phenomenex Security Guard C18 guard column (4 × 20 mm) maintained at 40 °C. The mobile phase consisted of 0.1% formic acid in deionized water (A) and 0.1% formic acid in CH3CN (B): 0~2 min 5% B, 2~7 min to 95% B, and 7~10 min 95% B. Total run time including a 5 min equilibration time was 15 min. […]
# [3] = Stability of SH-11037 in dog plasma; conditions: beagle, pH 7.4, SH-11037 1 µM, 37 °C, read-out: half-life (t1/2) of hydrolysis to SH-11008
# Protocol: as §1, §2
Structure (SMILES),"metabolic stability in the presence of NADPH ([1]; HLS9, NADPH 1 mM only, 30 min)","half-life at 1 µM ([1]; human, liver S9 fractions, SH-11008 1 µM, HLS9 1 mg protein/mL, mixture of NADPH, UDPGA and PAPS (1 mM), 37 °C) [s]","EH ([1]; human, predicted hepatic extraction ratio from HLS9 data)","CLH ([1]; human, predicted with the well-stirred model from HLS9 data) [L/h/kg]","CLint scaled at 1 µM ([1]; liver S9 fractions, human, scaled from in vitro t1/2 in HLS9) [L/h/kg]",half-life at 1 µM [2] [h],half-life at 1 µM [3] [h]
COc1ccc(CC2COc3cc(OC)c(OC)c(OC)c3C2=O)cc1O (stereo not shown) [SH-11008],stable,36,0.99,1.19,215,,
COc1ccc(CC2COc3cc(OC)c(OC)c(OC)c3C2=O)cc1OC(=O)[C@H](Cc1ccccc1)NC(=O)OC(C)(C)C (stereo partly shown) [SH-11037],,,,,,1.22,1.15
